Test results published in paper PMC5624964, “ORP5 and ORP8 bind phosphatidylinositol-4, 5-biphosphate (PtdIns(4,5)P2) and regulate its level at the plasma membrane” (Nature Communications, 2017).
Where two headings read alike, the source gives them in different places.

Assays:
Experiment in all cases: isothermal titration calorimetry
Format in all cases: binding
ORP8 ORD = biological target: T1, ORP8 ORD (Homo sapiens, UniProt Q9BZF1)
T1 construct: gene OSBPL8; ORD domain 400-778 of ORP8L, His6-ubiquitin tag removed by DUB without extra N-terminal residues, E. coli
T1 sequence (Q9BZF1 400-778): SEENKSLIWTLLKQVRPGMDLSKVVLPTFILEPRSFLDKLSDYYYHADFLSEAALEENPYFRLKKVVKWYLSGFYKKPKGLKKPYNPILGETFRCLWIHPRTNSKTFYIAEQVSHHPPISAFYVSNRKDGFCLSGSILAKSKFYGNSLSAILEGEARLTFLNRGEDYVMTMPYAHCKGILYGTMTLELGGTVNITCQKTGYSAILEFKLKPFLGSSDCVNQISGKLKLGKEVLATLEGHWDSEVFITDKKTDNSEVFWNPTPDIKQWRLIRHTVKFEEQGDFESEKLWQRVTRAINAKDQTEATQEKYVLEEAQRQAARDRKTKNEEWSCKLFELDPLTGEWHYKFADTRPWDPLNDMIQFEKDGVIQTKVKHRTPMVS
Description: isothermal titration calorimetry on ORP8 ORD

ORP5 ORD = biological target: T2, ORP5 ORD (Homo sapiens, UniProt Q9H0X9)
T2 construct: gene OSBPL5; ORD domain 364-746 of ORP5A, His6-ubiquitin tag removed by DUB without extra N-terminal residues, E. coli
T2 sequence (Q9H0X9 364-746): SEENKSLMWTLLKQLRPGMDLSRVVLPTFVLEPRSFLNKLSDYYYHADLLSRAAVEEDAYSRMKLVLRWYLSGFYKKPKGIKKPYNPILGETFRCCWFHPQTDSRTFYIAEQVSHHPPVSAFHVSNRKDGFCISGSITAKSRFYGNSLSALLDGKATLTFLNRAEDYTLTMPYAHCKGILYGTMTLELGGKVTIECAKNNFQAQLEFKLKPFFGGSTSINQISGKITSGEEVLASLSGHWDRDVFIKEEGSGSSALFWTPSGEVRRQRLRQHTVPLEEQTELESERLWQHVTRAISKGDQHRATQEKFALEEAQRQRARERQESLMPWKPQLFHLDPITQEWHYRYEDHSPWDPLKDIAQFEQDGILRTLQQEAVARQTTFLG
Description: isothermal titration calorimetry on ORP5 ORD

ORP5 PH = biological target: T3, ORP5 PH (Homo sapiens, UniProt Q9H0X9)
T3 construct: gene OSBPL5; PH domain 127-243 of ORP5A, synthetic gene, N-terminal MGSSGSSG and C-terminal RSGPSSGLEEF linkers, GST tag cleaved by thrombin, E. coli
T3 sequence (Q9H0X9 127-243): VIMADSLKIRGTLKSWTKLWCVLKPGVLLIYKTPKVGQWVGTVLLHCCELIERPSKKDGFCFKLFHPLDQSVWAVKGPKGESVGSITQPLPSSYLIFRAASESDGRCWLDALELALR
Description: isothermal titration calorimetry on ORP5 PH

ORP8 PH = biological target: T4, ORP8 PH (Homo sapiens, UniProt Q9BZF1)
T4 construct: gene OSBPL8; PH domain 149-265 of ORP8L, synthetic gene, N-terminal MGSSGSSG and C-terminal RSGPSSGLEEF linkers, GST tag cleaved by thrombin, E. coli
T4 sequence (Q9BZF1 149-265): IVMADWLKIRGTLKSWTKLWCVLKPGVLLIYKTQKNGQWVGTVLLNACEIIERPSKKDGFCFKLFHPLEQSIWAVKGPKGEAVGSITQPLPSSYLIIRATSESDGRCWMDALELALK
Description: isothermal titration calorimetry on ORP8 PH

[1] = water-soluble diC8 lipid, 25 °C, 50 mM Tris pH 8.0, 100 mM NaCl

Row | Compound | Kd (ORP8 ORD) | Kd (ORP5 ORD; [1]) | Kd (ORP8 ORD; [1]) | Kd (ORP5 PH; [1]) | Kd (ORP8 PH) | Kd (ORP5 ORD) | Kd (ORP5 PH)
1 | CCCCCCCC(=O)OC[C@H](COP(=O)(O)O[C@H]1[C@H](O)[C@@H](OP(=O)(O)O)[C@H](O)[C@@H](O)[C@H]1O)OC(=O)CCCCCCC [PtdIns(5)P] | 5.9 ± 4.1 µM |  |  |  |  |  | 
2 | CCCCCCCC(=O)OC[C@H](COP(=O)(O)O[C@H]1[C@H](O)[C@@H](O)[C@H](OP(=O)(O)O)[C@@H](O)[C@H]1O)OC(=O)CCCCCCC [PtdIns(4)P] |  | 6.7 ± 3.3 µM | 2.3 ± 0.3 µM |  |  |  | 
3 | CCCCCCCC(=O)OC[C@H](COP(=O)(O)O[C@H]1[C@H](O)[C@@H](O)[C@H](OP(=O)(O)O)[C@@H](OP(=O)(O)O)[C@H]1O)OC(=O)CCCCCCC [PtdIns(3,4)P2] | 2.5 ± 0.6 µM | 0.8 ± 0.8 µM |  | 16.3 ± 0.4 µM | 2.9 ± 0.1 µM |  | 
4 | CCCCCCCC(=O)OC[C@H](COP(=O)(O)O[C@@H]1[C@H](O)[C@H](OP(=O)(O)O)[C@@H](O)[C@H](O)[C@H]1O)OC(=O)CCCCCCC [PtdIns(3)P] | 1.7 ± 0.8 µM |  |  |  |  | 9 ± 2.7 µM | 
5 | CCCCCCCC(=O)OC[C@H](COP(=O)(O)O[C@H]1[C@H](O)[C@@H](OP(=O)(O)O)[C@H](OP(=O)(O)O)[C@@H](OP(=O)(O)O)[C@H]1O)OC(=O)CCCCCCC [PtdIns(3,4,5)P3] |  | 1.1 ± 0.3 µM |  | 5.3 ± 2.4 µM | 11.8 ± 3.2 µM |  | 
6 | CCCCCCCC(=O)OC[C@H](COP(=O)(O)O[C@@H]1[C@H](O)[C@H](O)[C@@H](OP(=O)(O)O)[C@H](OP(=O)(O)O)[C@H]1O)OC(=O)CCCCCCC [PtdIns(4,5)P2] | 5.3 ± 0.4 µM |  |  |  | 5.5 ± 1.2 µM | 6.7 ± 1.5 µM | 7.3 ± 0.5 µM
